Data taken from publication PMC5514153, “Targeting PTPRZ inhibits stem cell-like properties and tumorigenicity in glioblastoma cells” (Scientific Reports, 2017).
Like-named read-outs stand apart in the source and are kept apart here.

Columns and labels:
[1] = Plasma and brain levels after intraperitoneal injection; type: in vivo, C57BL6 mice; settings: for concentration at 1 h: mouse, ip, C57BL6 mice, 1 h after i.p. 30 mg/kg, two female mice
Source text: NAZ2329 successfully suppresses the cell proliferation and cell migration of the differentiated glioblastoma cells, as well as cell sphere formation (Figs 7 to 8). NAZ2329 is the first cell-permeable R5 RPTP inhibitor. […] Nevertheless, NAZ2329 is a potentially valuable lead therapeutic for the development of drugs that function through allosteric inhibitory mechanisms against PTPs, such as PTPRZ and PTPRG.

[2] = test system: oligodendrocyte precursor OL1 cells; test: OL1 oligodendrocyte differentiation assay; type: cell-based, mouse; settings: 10 days in differentiation media
Description: Figure 6 Effects of NAZ2329 treatment on oligodendrocyte differentiation. Mouse oligodendrocyte-lineage OL1 cells were cultured in differentiation media containing the indicated concentrations of NAZ2329. After 10 days, cells were fixed with formalin and stained with anti-NG2 proteoglycan (oligodendrocyte precursor cells, red) and anti-MBP (oligodendrocyte, green) antibodies, in conjunction with the DAPI-labeling of nuclei (blue). Scale bars, 100 µm.
The preparation of mouse oligodendrocyte-lineage OL1 cells was described previously. […] On the 10th day of the culture, differentiation from oligodendrocyte precursor cells to oligodendrocytes was assessed was described previously[14]–[16]. Briefly, cells were fixed and stained with anti-NG2 (a specific marker for oligodendrocyte precursor cells) and anti-MBP (a marker for matured oligodendrocytes), and the observed with a standard fluorescence microscope (Biozero BZ8000, Keyence). Differentiation from oligodendrocyte precursor cells to oligodendrocytes was expressed as the ratio of MBP-positive cells to NG2-positive cells.

C6 cells = test: Cell proliferation assay, C6 cells; type: cell-based, rat; settings: 48 h, 2% FBS
Description: Figure 7 Cellular effects of NAZ2329 on the malignant phenotypes of C6 cells. (A) Phosphorylation of paxillin at Tyr-118. C6 cells were incubated with NAZ2329 for the indicated periods. Immunoprecipitated paxillin was analyzed by Western blotting using anti-pY118-paxillin and anti-paxillin. Blots are representative of five independent cultures. […] (B) Cell proliferation assay. C6 cells were incubated for 48 h with NAZ2329 in normal medium containing 2% FBS. […] (C) Boyden chamber assay. Cells were allowed to migrate for 3 h. DAPI-stained nuclei are shown before (total) and after (migrated) the removal of cells remaining in the top chamber. Scale bars, 100 µm. […] (D,E) Sphere formation (D) and SOX2 expression (E). C6 cells were cultured in CSC medium for 7 days with indicated concentrations of NAZ2329. Images are representative of five independent cultures. Scale bars, 100 µm. […] (F) Self-renewal of C6 spheres. C6 spheres were initially developed in CSC medium for 7 days, followed by an incubation with NAZ2329 in CSC medium for 5 days. Images are representative of five independent cultures. Scale bars, 100 µm. […]
Cells (3 × 10^4 cells) were inoculated into a 24-well plastic tissue culture plate with 500 µl of DMEM supplemented with 2% FBS and the indicated compounds for 48 h. Cells were harvested by trypsinization and then manually counted with a hemacytometer.

BBB permeability ([1]; from plasma and brain levels 1 h after i.p. 30 mg/kg): poor BBB permeability | concentration at 1 h ([1]; brain, read-out: average level in brain): 300 ng/g | concentration at 1 h ([1]; plasma, read-out: average level in plasma): 22000 ng/mL
Compound: CCOc1ccc(C(F)(F)F)cc1CSc1ccsc1C(=O)NS(=O)(=O)c1ccccc1 [NAZ2329]
differentiation of OL1 cells to mature oligodendrocytes (MBP-positive/NG2-positive ratio) [2]: dose-dependently induced the differentiation | cell proliferation (C6 cells): inhibited cell proliferation
